Consider two compounds from patent US10556902B2 (Asceneuron SA, priority 2016, dated 2020).

The IC50 is the concentration at which inhibition is half-maximal.

This assay addresses His-Tagged hOGA (human O-GlcNAcase) (Homo sapiens (Human), UniProt O60502). As to the kind of experiment: Human O-GlcNAcase enzyme inhibition assay.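 Also: reactions contained 20 nM His-tagged hOGA enzyme with 10 µM FL-GlcNAc substrate.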 It counts as biochemical. The following applies: OGA enzyme inhibition assay; FL-GlcNAc substrate, pH 6.5; activity classes defined in μM; read-out: OGA IC50.

Sequence of His-Tagged hOGA (human O-GlcNAcase) (O60502 whole entry): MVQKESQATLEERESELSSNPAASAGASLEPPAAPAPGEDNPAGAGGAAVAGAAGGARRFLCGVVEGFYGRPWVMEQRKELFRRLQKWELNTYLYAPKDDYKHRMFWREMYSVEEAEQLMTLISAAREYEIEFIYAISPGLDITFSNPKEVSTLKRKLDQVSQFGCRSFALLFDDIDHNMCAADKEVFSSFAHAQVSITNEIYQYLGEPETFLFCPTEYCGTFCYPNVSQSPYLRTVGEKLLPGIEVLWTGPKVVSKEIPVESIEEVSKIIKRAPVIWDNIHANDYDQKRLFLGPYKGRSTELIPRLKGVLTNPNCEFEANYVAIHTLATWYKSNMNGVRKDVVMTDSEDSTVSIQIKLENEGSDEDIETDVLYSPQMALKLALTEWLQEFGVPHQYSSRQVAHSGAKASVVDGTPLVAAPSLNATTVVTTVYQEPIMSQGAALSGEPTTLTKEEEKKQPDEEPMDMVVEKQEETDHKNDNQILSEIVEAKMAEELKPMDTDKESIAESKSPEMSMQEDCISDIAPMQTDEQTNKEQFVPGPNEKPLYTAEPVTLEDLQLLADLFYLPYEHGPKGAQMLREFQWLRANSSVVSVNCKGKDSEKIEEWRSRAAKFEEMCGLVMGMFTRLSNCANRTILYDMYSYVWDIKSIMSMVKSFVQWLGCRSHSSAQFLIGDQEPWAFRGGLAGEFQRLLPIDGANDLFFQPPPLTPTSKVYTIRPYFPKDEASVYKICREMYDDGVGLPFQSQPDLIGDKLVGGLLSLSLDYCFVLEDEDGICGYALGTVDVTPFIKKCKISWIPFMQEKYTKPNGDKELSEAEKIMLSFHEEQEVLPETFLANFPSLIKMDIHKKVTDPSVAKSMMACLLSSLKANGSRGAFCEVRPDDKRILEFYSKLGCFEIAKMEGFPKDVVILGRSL
Experimental: Then, 20 nM of His-Tagged hOGA and 10 μM of FL-GlcNAc (Fluorescein mono-beta-D-(2-deoxy-2-N-acetyl) glucopyranoside; Marker Gene Technologies Inc, M1485) were added to the 384-well plate for a final volume of 20 μl.

In the case of `C[C@@H](c1cnc2cccnc2c1)N1CCN(c2ncc(C(F)(F)F)cn2)CC1` [Example 221], the IC50 fell in the range of 0.2 to 1 µM.

As to `CC(=O)Nc1nnc(N2CCN([C@@H](C)c3cnc4cccnc4c3)CC2)s1` [Example 222], the half-inhibitory concentration (IC50) fell in the range of 0.05 to 0.2 µM.
